Values after ≈ are worked out from the molar mass of the structure shown. Where two headings read alike, the source gives them in different places.
What was measured:
[1] = In vivo functional observational battery (FOB); details: male, Crl:CD(SD), rat, in vivo, po
[2] = test system: rats; experiment: In vivo functional observational battery (FOB); details: for Increased touch response: 10 mg/kg
[3] = test system: rat liver microsomes; experiment: In vitro metabolic stability, rat liver microsomes; assay type: in vitro ADME; details: 2 μM, % remaining after 30 minutes at 37° C.
Procedure: (§1) The comparative in vitro metabolic stabilities of Compounds (1F), […], and W-212393 were determined upon exposure to human liver microsomes or rat liver microsomes according to a procedure disclosed in, e.g., Example 14 of U.S. Pat. No. 9,290,488, which is hereby incorporated by reference in its entirety. Liver microsomes from Crj;CD rats or humans were incubated with 2 μM of each tested compound; thereafter, the supernatant was analyzed by HPLC-MS for the concentration of the tested compound present. Human liver microsomes, pooled, 20 mg/mL, were obtained from […] #H0610). […] Alternatively and if desired, rat liver microsomes can be obtained commercially from, e.g., XenoTech (Sprague-Dawley rat liver microsomes, pooled, 20 mg/mL, cat #R1000). β-NADPH (β-nicotinamide adenine dinucleotide 2'-phosphate reduced tetrasodium salt hydrate) was obtained from Oriental Yeast Co., Ltd. (Tokyo, Japan). Each tested compound, present at an initial concentration of 2 μM, was incubated at 37° C. in the presence of 0.5 mg/mL of either human microsomes or rat microsomes in suspension in 50 mM Tris-HCl buffer (7.4 pH), 150 mM KCl, 10 mM MgCl2, and 1 mM β-NADPH. Incubation was initiated upon the addition of a 100-fold concentrated solution of the tested compound to one of the microsome preparations. Incubation was terminated by addition of a two-fold volume of a 1/1 mixture of acetonitrile/methanol after either 0 minutes or 30 minutes of incubation at 37° C. Thereafter, proteins and other macromolecules from the microsome preparation were removed by centrifugation. All incubations were conducted in duplicate. […] The HPLC system consisted of a Waters 2795 separations module (Waters Corp., Milford, Mass.) equipped with an inline degasser, temperature controlled auto-sampler, and column oven. The analytical column was a Waters […], 2.1 mm×20 mm column. The mass analyzer was a Waters ZQ, single quadrupole mass spectrometer equipped with an electrospray ionization source operating in the positive ionization mode and utilizing a stainless steel spray capillary. […]

[4] = test system: human liver microsomes; experiment: In vitro metabolic stability, human liver microsomes; assay type: in vitro ADME; details: 2 μM, % remaining after 30 minutes at 37° C.
Procedure: as §1

[5] = Rat protein binding, equilibrium dialysis of rat plasma; assay type: in vitro ADME; details: rat, rat plasma, 2 μg/mL, 24 hours dialysis at 37° C.
Procedure: (§2) The extent of in vitro binding of Compound (1F), […], or W-212393 to rat plasma was determined as an assessment of the protein binding of each compound, i.e., compound unavailable for modulating receptor activity. Plasma from rats containing a tested compound in one chamber of a dialysis cell was dialyzed with PBS in the other chamber; thereafter, the supernatant from each chamber was analyzed for the concentration of the tested compound present. A cell suitable for equilibrium dialysis was used in the determinations. The dialysis membrane described in Example 10 (with molecular mass cutoff of 12,000-14,000 Da) separated the dialysis cell into two chambers. The membrane was soaked with purified water and PBS before being placed into the dialysis cell. 4 μL of an iv formulation of each tested compound was added to 996 μL of rat plasma, the latter obtained using syringe containing heparin and EDTA by the procedure described in Example 10, to provide a plasma sample with a tested compound concentration of 2 μg/mL. 450 μL of the plasma sample was applied to one chamber (plasma chamber) of the dialysis cell. A 450 μL aliquot of PBS was applied to the other chamber (PBS chamber) of the dialysis cell. The dialysis study was conducted in duplicate for each tested compound. After 24 hours of equilibrium dialysis at 37° C., 30 μL of liquid from the plasma chamber of the dialysis cell was collected and to this was added 270 μL of fresh PBS (this combination was designated Sample “1”). Then, 270 μL of liquid from the PBS chamber of the dialysis cell was collected and to this was added 30 μL of control rat plasma (i.e., rat plasma never exposed to any test compound, this combination was designated Sample “2”). Thereafter, each sample was mixed well and stored in a freezer until the next analysis step. After the protein precipitated in the freezer, each supernatant thusly obtained was analyzed by LC-MS-MS for unbound test compound. […] Thereafter, the percentage of rat protein-bound (“RPB”) tested compound was calculated as follows: […]

[6] = in vivo; details: male, Crl, CD(SD), rat, brain homogenate and plasma, intravenous, 0.5 mg/kg
[7] = In vivo bioavailability after oral dosing; details: male, Sprague-Dawley [Crl:CD(SD)], rat, plasma; 1 mg/kg oral, non-fasted; mean of multiple determinations
[8] = Aqueous solubility at pH about 6.8; assay type: physicochemical; details: 25 °C, pH 6.8, aqueous buffer, kinetic from dmso stock
[9] = biological target: ORL-1 receptor (Homo sapiens, UniProt P41146); experiment: Functional [^35S]GTPγS binding assay, ORL-1; assay type: biochemical; details: from ORL-1 Emax results in Table 21
[10] = biological target: mu-opioid receptor (Homo sapiens, UniProt P35372); details: determined in Example 18 of U.S. Pat. No. 8,476,271; cited from earlier work
[11] = test system: rat plasma; experiment: Rat protein binding, equilibrium dialysis of rat plasma; assay type: in vitro ADME
Procedure: as §2

[12] = Free unbound compound fraction, equilibrium dialysis of rat serum; assay type: in vitro ADME; details: male, Crl:CD (SD), rat, rat serum; 2 μg/mL, 24 hours dialysis at 37° C.
Procedure: (§3) The extent of in vitro binding of Compound (1F) or W-212393 to rat serum was determined as an assessment of the availability of free unbound compound for modulating receptor activity according to a procedure disclosed in, e.g., Example 15 of U.S. Pat. No. 9,290,488, which is hereby incorporated by reference in its entirety. Serum from rats containing a tested compound in one chamber of a dialysis cell was dialyzed with phosphate buffered saline (“PBS”) in the other chamber; thereafter, the supernatant from each chamber was analyzed for the concentration of the tested compound present. […] The final concentration of each tested compound in the serum sample was adjusted to 2 μg/mL by adding an appropriate volume of PBS. A cell suitable for equilibrium dialysis was used in the determinations. A SPECTRA/POR dialysis membrane (with molecular mass cutoff of 12,000-14,000 Da, Spectrum Laboratories, Inc., Rancho Dominguez, Calif.) separated the dialysis cell into two chambers. A 500 μL aliquot of the serum sample containing a tested compound was applied to one chamber (serum chamber) of the dialysis cell. A 500 μL aliquot of PBS was applied to the other chamber (PBS chamber) of the dialysis cell. The dialysis study was conducted in duplicate for each tested compound. After 24 hours of equilibrium dialysis at 37° C., 30 μL of liquid from the serum chamber of the dialysis cell was collected and to this was added 270 μL of fresh PBS (this combination was designated Sample “A”). Then, 270 μL of liquid from the PBS chamber of the dialysis cell was collected and to this was added 30 μL of control rat serum (i.e., rat serum never exposed to any test compound, this combination was designated Sample “B”). […] Each supernatant was analyzed by LC-MS-MS. […] Thereafter, the percentage of free unbound tested compound was calculated from the ratio of the tested compound amount determined from Sample B divided by the sum of the tested compound amounts determined from Sample A and Sample B.

[13] = test system: rat serum; experiment: as above; assay type: in vitro ADME; details: average of multiple determinations
Procedure: as §3

[14] = test system: rats; experiment: EEG/EMG sleep-wake analysis, single administration compared to zolpidem; assay type: in vivo, rat
[15] = test system: chronic insomniacs; details: 10 mg zolpidem, PSG in chronic insomniacs; cited from earlier work
[16] = 30 mg/kg, 1 h after administration
[17] = 30 mg/kg, 2 h after administration
[18] = 30 mg/kg, 4 h after administration
[19] = 30 mg/kg, 6 h after administration
[20] = 30 mg/kg, 8 h after administration
[21] = 30 mg/kg, 24 h after administration
[22] = 300 mg/kg, 1 h after administration
[23] = 300 mg/kg, 2 h after administration
[24] = 300 mg/kg, 4 h after administration
[25] = 300 mg/kg, 6 h after administration
[26] = 300 mg/kg, 8 h after administration
[27] = 300 mg/kg, 24 h after administration
[28] = 50 mM phosphate buffer, second procedure (50 mM phosphate buffer, HPLC), read-out: Solubility at pH 6.8
[29] = first procedure (JP2 solution, LC-MS), read-out: Solubility at pH 6.8

Sequence of ORL-1 receptor (P41146 whole entry): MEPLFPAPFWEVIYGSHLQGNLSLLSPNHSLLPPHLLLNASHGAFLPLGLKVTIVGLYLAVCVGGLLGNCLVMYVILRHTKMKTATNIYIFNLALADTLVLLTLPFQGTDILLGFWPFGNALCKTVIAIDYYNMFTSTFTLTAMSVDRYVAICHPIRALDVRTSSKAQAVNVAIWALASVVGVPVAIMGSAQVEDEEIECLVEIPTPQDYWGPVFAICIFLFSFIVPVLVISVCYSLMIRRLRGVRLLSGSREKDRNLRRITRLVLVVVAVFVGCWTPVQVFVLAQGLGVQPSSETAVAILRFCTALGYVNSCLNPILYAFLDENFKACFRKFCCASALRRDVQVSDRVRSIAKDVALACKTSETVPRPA
Sequence of mu-opioid receptor (P35372 whole entry): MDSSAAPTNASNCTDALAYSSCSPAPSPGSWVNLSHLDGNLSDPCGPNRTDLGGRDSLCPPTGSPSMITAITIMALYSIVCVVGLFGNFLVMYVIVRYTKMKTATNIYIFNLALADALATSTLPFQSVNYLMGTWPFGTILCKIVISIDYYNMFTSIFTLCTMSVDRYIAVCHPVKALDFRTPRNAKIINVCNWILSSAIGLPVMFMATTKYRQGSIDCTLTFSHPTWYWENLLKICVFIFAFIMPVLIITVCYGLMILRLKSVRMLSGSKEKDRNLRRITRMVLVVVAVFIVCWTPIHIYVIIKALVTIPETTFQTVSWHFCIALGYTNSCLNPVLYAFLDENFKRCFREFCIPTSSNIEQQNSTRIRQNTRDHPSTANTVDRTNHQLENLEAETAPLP

SMILES: C[C@@H]1C[C@@H]2C[C@H](C1)C[C@@H](N1[C@@H]3CCC[C@H]1C[C@@H](n1c(=O)c(C(=O)O)nc4ccccc41)C3)C2 [Compound 405]
- NOAEL [1]: 10 mg/kg
- Increased touch response ([2]; 1 h after administration): 1 of 6
- Increased touch response ([2]; 2 h after administration): N
- Increased touch response ([2]; 4 h after administration): N
- Increased touch response ([2]; 6 h after administration): N
- Increased touch response ([2]; 8 h after administration): N
- Increased touch response ([2]; 24 h after administration): N
- Biting behavior [2, 16]: N
- Jumping [2, 16]: N
- Biting behavior [2, 17]: N
- Jumping [2, 17]: N
- Biting behavior [2, 18]: N
- Jumping [2, 18]: N
- Biting behavior [2, 19]: 3 of 6
- Jumping [2, 19]: 1 of 6
- Biting behavior [2, 20]: N
- Jumping [2, 20]: N
- Biting behavior [2, 21]: N
- Jumping [2, 21]: N
- Biting behavior ([2]; 100 mg/kg, 1 h after administration): N
- Biting behavior ([2]; 100 mg/kg, 2 h after administration): N
- Biting behavior ([2]; 100 mg/kg, 4 h after administration): N
- Biting behavior ([2]; 100 mg/kg, 6 h after administration): 1 of 6
- Biting behavior ([2]; 100 mg/kg, 8 h after administration): 1 of 6
- Biting behavior ([2]; 100 mg/kg, 24 h after administration): N
- Biting behavior [2, 22]: N
- Jumping [2, 22]: N
- Biting behavior [2, 23]: N
- Jumping [2, 23]: N
- Biting behavior [2, 24]: N
- Jumping [2, 24]: N
- Biting behavior [2, 25]: 2 of 6
- Jumping [2, 25]: 1 of 6
- Biting behavior [2, 26]: 1 of 6
- Jumping [2, 26]: 2 of 6
- Biting behavior [2, 27]: N
- Jumping [2, 27]: N

SMILES: C[C@@H]1C[C@@H]2C[C@H](C1)C[C@@H](N1[C@@H]3CCC[C@H]1C[C@@H](n1c(=O)c(C(=O)O)nc4ccccc41)C3)C2 [Compound 405K]
- Rat Metabolic Stability (%) [3]: 96.9%
- Human Metabolic Stability (%) [4]: 95.1%
- fraction unbound at 24 h, 2 μg/mL [5]: ~0.14
- Kp at 30 min [6]: 0
- bioavailability [7]: 63.7%
- solubility at 16 h [8, 28]: 5 µM (≈ 2.25 µg/mL)
- solubility at 16 h [8, 29]: 8 µM (≈ 3.6 µg/mL)
- solubility at 16 h ([8]; pH of about 6.8, average of two determinations, read-out: aqueous solubility, average): ~6.5 µM (≈ 2.92 µg/mL)

SMILES: O=C(O)c1nc2ccccc2n([C@H]2C[C@H]3CCC[C@@H](C2)N3C2CC3CCCC(C3)C2)c1=O (stereo partly shown) [Compound (1C)]
- agonist classification at ORL-1 from Emax [9]: partial agonists
- GTPγS Mu Emax [10]: 0%

SMILES: O=C(O)c1nc2ccccc2n([C@H]2C[C@H]3CCC[C@@H](C2)N3C2CC3CCCC(C3)C2)c1=O (stereo partly shown) [Compound (1F)]
- Rat Metabolic Stability (%) [3]: 95.3%
- Human Metabolic Stability (%) [4]: 98.7%
- fraction unbound at 24 h, 2 μg/mL [5]: 0.491
- Rat Protein Binding (%) ([11]; 2 μg/mL, 24 hours dialysis at 37° C.): 53.0%
- bound compound fraction, average ([11]; average of multiple determinations): 52%
- fraction unbound at 24 h, 2 μg/mL [12]: 0.65 to 0.7
- free unbound compound fraction, average [13]: 67.5%
- solubility at 16 h [8, 28]: 35 µM (≈ 15.2 µg/mL)
- solubility at 16 h [8, 29]: > 50 µM
- solubility at 16 h ([8]; pH of about 6.8, over both determinations, read-out: aqueous solubility): ≥ 35 µM

SMILES: Cc1ccc(-c2nc3ccc(C)cn3c2CC(=O)N(C)C)cc1 [zolpidem, reference compound]
- overall sleep effect ([14]; single zolpidem dose of 10 mg/kg oral): sleep-enhancing effect
- effect on percentage of time spent in REM sleep ([14]; zolpidem 10 mg/kg oral (FIG. 17B, 18B)): no significant effects
- NREM sleep versus vehicle ([14]; zolpidem 10 mg/kg oral, 3 hour block 0-3 hours after dosing (FIG. 18C)): significant increase
- wakefulness versus vehicle ([14]; zolpidem 10 mg/kg oral, 3 hour blocks, 0-12 hours after administration (FIG. 18A)): decreased tendency
- percentage of time spent in wakefulness ([14]; zolpidem 10 mg/kg oral, at 1 hour after dosing (FIG. 17A)): about 46%
- percentage of time spent in NREM sleep ([14]; zolpidem 10 mg/kg oral, at 1 hour after dosing (FIG. 17C)): about 53%
- percentage of time spent in wakefulness ([14]; zolpidem 10 mg/kg oral, at 10 hours after dosing (FIG. 17A)): ~43%
- percentage of time spent in NREM sleep ([14]; zolpidem 10 mg/kg oral, at 15 hours after dosing (FIG. 17C)): ~30%
- percentage of time spent in wakefulness ([14]; zolpidem 10 mg/kg oral, at 15 hours after dosing, lights-on period (FIG. 17A)): about 69%
- Mean percent SE higher than placebo group [15]: 7%
